Test results as given in patent publication US20260083865A1, “PROSTATE SPECIFIC MEMBRANE ANTIGEN (PSMA) LIGANDS AND USE THEREOF” (priority 2022, published 2026).
Like-named read-outs stand apart in the source and are kept apart here. Numbered stars: 1 amine (or outer) side, 2 acyl side, 3 side chain; on linkers, the order of the positions; unused ones are H or OH. Bridge positions count the residues as written; N and C are the ends. Square brackets hold non-standard residues; d marks the D form. Peptide text beside a SMILES is read from it. * marks the point of attachment. DOTA = O=C(O)CN1CCN(CC(=O)O)CCN(CC(=O)*)CCN(CC(=O)O)CC1; Phe(4-Cl) = N[C@@H](Cc1ccc(Cl)cc1)C(=O)O; Pro(4R-NH2) = N[C@H]1CN[C@H](C(=O)O)C1; Isobutyryl(2-OH) = CC(C)(O)C(=O)*; NMeR = CN[C@@H](CCCNC(=N)N)C(=O)O; hArg = N=C(N)NCCCC[C@H](N)C(=O)O; αMeF = C[C@](N)(Cc1ccccc1)C(=O)O; 3Pal = N[C@@H](Cc1cccnc1)C(=O)O; X1 = O=C(CC1CCN([*:1])CC1)[*:2]; Cit = NC(=O)NCCC[C@H](N)C(=O)O; Tle = CC(C)(C)[C@H](N)C(=O)O; αMeP = C[C@@]1(C(=O)O)CCCN1; Aib = CC(C)(N)C(=O)O

Tests used:
[1] = biological target: T1, Fc-fusion protein of human PSMA (hPSMA-Fc) (Homo sapiens, UniProt Q04609); assay: Surface plasmon resonance assay (Biacore T200, single cycle kinetic); assay type: binding; settings: read-out: pKD CAT (converted)
T1 construct: purchased Acro Biosystems PSA-H5264
In short: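 hPSMA-Fc was captured (~1000 RU) on an Fc-binding-peptide CM5 chip, and compounds were run in single cycle kinetic mode at 25° C in HBST with 0.1% DMSO. Double-blank-corrected sensorgrams were fitted to a 1:1 Langmuir model to give KD, reported as pKD.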

[2] = biological target: T2, PSMA-expressing C4-2 cells (Homo sapiens, UniProt Q04609); assay: FACS binding assay (competition with 50 nM PSM-0183); settings: read-out: pIC50 [C4-2] CAT (converted)
T2 construct: PSMA-expressing C4-2 cells (ATCC, Cat. No. CRL-3314) were cultured in RPMI-1640; host or cells: C4-2 cells
In short: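 C4-2 cells were incubated 1 h at 4 °C with 50 nM AF488-labelled peptide PSM-0183 plus increasing test compound concentrations, then washed twice in ice-cold buffer. Median fluorescence in the AF488 channel was read by flow cytometry. IC50/pIC50 was derived by 4PL fitting of MFI versus concentration.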

[3] = pKD category for PSMA SPR activity assay, hPSMA-Fc, 25° C.
[4] = pIC50 category of FACS binding, C4-2 cells
[5] = SPR, hPSMA-Fc, single cycle kinetic, 25° C., category
[6] = FACS binding, C4-2 cells, competition with 50 nM PSM-0183, category

T1 sequence (Q04609 44-750 limits assumed): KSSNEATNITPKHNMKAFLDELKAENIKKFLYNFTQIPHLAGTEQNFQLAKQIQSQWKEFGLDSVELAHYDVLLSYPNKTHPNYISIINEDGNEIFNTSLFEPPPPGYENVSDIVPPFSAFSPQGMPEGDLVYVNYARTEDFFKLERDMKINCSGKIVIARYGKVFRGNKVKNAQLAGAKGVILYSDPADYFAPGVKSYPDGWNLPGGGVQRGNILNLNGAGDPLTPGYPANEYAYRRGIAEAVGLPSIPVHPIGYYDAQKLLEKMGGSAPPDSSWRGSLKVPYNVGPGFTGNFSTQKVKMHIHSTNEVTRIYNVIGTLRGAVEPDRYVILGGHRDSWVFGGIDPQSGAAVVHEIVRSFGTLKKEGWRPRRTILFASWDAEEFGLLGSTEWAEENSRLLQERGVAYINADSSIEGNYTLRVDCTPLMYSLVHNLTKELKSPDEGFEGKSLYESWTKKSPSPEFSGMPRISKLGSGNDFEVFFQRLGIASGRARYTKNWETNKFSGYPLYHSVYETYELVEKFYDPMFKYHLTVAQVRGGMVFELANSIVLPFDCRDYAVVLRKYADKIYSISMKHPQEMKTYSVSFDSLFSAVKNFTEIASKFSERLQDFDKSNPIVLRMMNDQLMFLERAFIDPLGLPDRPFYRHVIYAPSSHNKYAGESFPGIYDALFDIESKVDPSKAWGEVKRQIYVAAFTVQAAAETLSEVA
T2 sequence (Q04609 whole entry): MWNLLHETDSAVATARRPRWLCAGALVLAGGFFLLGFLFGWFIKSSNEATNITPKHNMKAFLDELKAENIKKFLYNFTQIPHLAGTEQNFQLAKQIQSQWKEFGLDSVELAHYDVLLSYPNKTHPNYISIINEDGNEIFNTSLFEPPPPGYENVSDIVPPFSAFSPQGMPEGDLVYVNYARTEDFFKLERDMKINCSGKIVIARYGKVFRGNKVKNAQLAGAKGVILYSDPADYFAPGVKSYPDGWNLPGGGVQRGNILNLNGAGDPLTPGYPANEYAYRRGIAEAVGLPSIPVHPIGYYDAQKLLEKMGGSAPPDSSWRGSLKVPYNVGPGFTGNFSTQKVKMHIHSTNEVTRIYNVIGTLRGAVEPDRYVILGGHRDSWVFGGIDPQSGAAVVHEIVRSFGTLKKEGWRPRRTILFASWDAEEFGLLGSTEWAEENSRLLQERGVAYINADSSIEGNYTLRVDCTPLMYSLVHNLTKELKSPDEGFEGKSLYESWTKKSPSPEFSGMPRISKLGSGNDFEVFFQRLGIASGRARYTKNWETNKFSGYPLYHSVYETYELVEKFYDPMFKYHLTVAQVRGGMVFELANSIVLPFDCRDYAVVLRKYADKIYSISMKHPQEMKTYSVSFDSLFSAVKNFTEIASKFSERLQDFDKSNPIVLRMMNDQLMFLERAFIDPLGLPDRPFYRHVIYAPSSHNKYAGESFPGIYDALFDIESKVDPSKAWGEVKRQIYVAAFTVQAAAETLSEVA

Kd [1, 3] [nM] | IC50 [2, 4] [nM] | SMILES | further results
 |  | CC(=O)NC(=N)NCCC[C@@H]1NC(=O)[C@H](CCCCN)NC(=O)[C@@H](NC(=O)[C@H](Cc2ccc(Cl)cc2)NC(=O)C(C)(C)NC(=O)[C@@H](NC(C)=O)[C@@H](C)O)CSSC[C@@H](C(=O)N[C@H](C(=O)N[C@H](C(N)=O)[C@@H](C)O)C(C)(C)C)NC(=O)[C@H](CC(N)=O)NC(=O)C(C)(C)NC1=O [PSM-0569, Ac-Thr-Aib-Pcf-[Cys-Lys-Arg(Ac)-Aib-Asn-Cys]-Tle-Thr-NH2] (Ac-T[Aib][Phe(4-Cl)]CKR(Ac)[Aib]NC[Tle]T-NH2; disulfide 4-9) | Kd ([1]; PSMA SPR assay, category): < 12.6 nM; IC50 ([2]; FACS binding, C4-2 cells, category): < 200 nM
12.6 to 126 | > 3160 | CC(=O)N[C@H](C(=O)N[C@@H](C)C(=O)N[C@@](C)(Cc1ccccc1)C(=O)N[C@H]1CSSC[C@@H](C(=O)N[C@H](C(=O)N[C@H](C(N)=O)[C@@H](C)O)C(C)(C)C)NC(=O)[C@H](CC(N)=O)NC(=O)C(C)(C)NC(=O)[C@H](CCCNC(=N)N)NC(=O)[C@H](CCCCN)NC1=O)[C@@H](C)O [PSM-0414, Ac-Thr-Ala-Amf-[Cys-Lys-Arg-Aib-Asn-Cys]-Tle-Thr-NH2] (Ac-TA[αMeF]CKR[Aib]NC[Tle]T-NH2; disulfide 4-9) | 
126 to 501 | < 200 | CC(=O)N[C@H](C(=O)NC(C)(C)C(=O)N[C@@H](Cc1ccccc1)C(=O)N[C@H]1CSSC[C@@H](C(=O)N[C@H](C(=O)N[C@H](C(=O)N[C@@H](CC(=O)O)C(N)=O)[C@@H](C)O)C(C)(C)C)NC(=O)[C@H](CC(N)=O)NC(=O)[C@H](C)NC(=O)[C@H](CCCNC(=N)N)NC(=O)[C@@H]2C[C@@H](N)CN2C1=O)[C@@H](C)O [PSM-0422, Ac-Thr-Aib-Phe-[Cys-Tap-Arg-Ala-Asn-Cys]-Tle-Thr-Asp-NH2] (Ac-T[Aib]FC[Pro(4R-NH2)]RANC[Tle]TD-NH2; disulfide 4-9) | 
 |  | C[C@@H](O)[C@H](NC(=O)[C@@H](NC(=O)[C@@H]1CSSC[C@H](NC(=O)[C@H](Cc2cccnc2)NC(=O)C(C)(C)NC(=O)[C@@H](NC(=O)CC2CCN(C(=O)CN3CCN(CC(=O)O)CCN(CC(=O)O)CCN(CC(=O)O)CC3)CC2)[C@@H](C)O)C(=O)N[C@@H](CCCCN)C(=O)N[C@@H](CCCNC(N)=O)C(=O)NC(C)(C)C(=O)N[C@@H](CC(N)=O)C(=O)N1)C(C)(C)C)C(N)=O [PSM-0255, DOTA-Cmp-Thr-Aib-Mpa-[Cys-Lys-Cit-Aib-Asn-Cys]-Tle-Thr-NH2] ({DOTA}-[X1]T[Aib][3Pal]CK[Cit][Aib]NC[Tle]T-NH2; disulfide 5-10) | Kd [1, 5]: > 501 nM; IC50 [2, 6]: 1260 to 3160 nM
 |  | C[C@@H](O)[C@H](NC(=O)[C@@H](NC(=O)[C@@H]1CSSC[C@H](NC(=O)[C@H](Cc2ccc(Cl)cc2)NC(=O)C(C)(C)NC(=O)[C@@H](NC(=O)CC2CCN(C(=O)CN3CCN(CC(=O)O)CCN(CC(=O)O)CCN(CC(=O)O)CC3)CC2)[C@@H](C)O)C(=O)N[C@@H](CCCCN)C(=O)N(C)[C@@H](CCCNC(=N)N)C(=O)NC(C)(C)C(=O)N[C@@H](CC(N)=O)C(=O)N1)C(C)(C)C)C(N)=O [PSM-0340, DOTA-Cmp-Thr-Aib-Pcf-[Cys-Lys-Nmr-Aib-Asn-Cys]-Tle-Thr-NH2] ({DOTA}-[X1]T[Aib][Phe(4-Cl)]CK[NMeR][Aib]NC[Tle]T-NH2; disulfide 5-10) | Kd ([1]; PSMA SPR assay, hPSMA-Fc, 25° C., pKD category): < 12.6 nM; IC50 ([2]; FACS binding, PSMA-expressing C4-2 cells, pIC50 category): 200 to 1260 nM
 |  | C[C@@H](O)[C@H](NC(=O)[C@@H](NC(=O)[C@@H]1CSSC[C@H](NC(=O)[C@H](Cc2ccc(Cl)cc2)NC(=O)C(C)(C)NC(=O)[C@@H](NC(=O)CC2CCN(C(=O)CN3CCN(CC(=O)O)CCN(CC(=O)O)CCN(CC(=O)O)CC3)CC2)[C@@H](C)O)C(=O)N[C@@H](CCCCNC(=N)N)C(=O)N[C@@H](CCCNC(=N)N)C(=O)NC(C)(C)C(=O)N[C@@H](CC(N)=O)C(=O)N1)C(C)(C)C)C(N)=O [PSM-0225, DOTA-Cmp-Thr-Aib-Pcf-[Cys-Har-Arg-Aib-Asn-Cys]-Tle-Thr-NH2] ({DOTA}-[X1]T[Aib][Phe(4-Cl)]C[hArg]R[Aib]NC[Tle]T-NH2; disulfide 5-10) | Kd [1, 5]: < 12.6 nM; IC50 [2, 6]: < 200 nM
12.6 to 126 | < 200 | C[C@@H](O)[C@H](NC(=O)[C@@H](NC(=O)[C@@H]1CSSC[C@H](NC(=O)[C@H](Cc2ccc(Cl)cc2)NC(=O)C(C)(C)O)C(=O)N[C@@H](CCCCN)C(=O)N[C@@H](CCCNC(=N)N)C(=O)NC(C)(C)C(=O)N[C@@H](CC(N)=O)C(=O)N1)C(C)(C)C)C(N)=O [PSM-0461, Hib-Pcf-[Cys-Lys-Arg-Aib-Asn-Cys]-Tle-Thr-NH2] ({Isobutyryl(2-OH)}-[Phe(4-Cl)]CKR[Aib]NC[Tle]T-NH2; disulfide 2-7) | 
< 12.6 | < 200 | CC(=O)N[C@H](C(=O)N1CCC[C@@]1(C)C(=O)N[C@@H](Cc1ccccc1)C(=O)N[C@H]1CSSC[C@@H](C(=O)N[C@H](C(=O)N[C@H](C(N)=O)[C@@H](C)O)C(C)(C)C)NC(=O)[C@H](CC(N)=O)NC(=O)C(C)(C)NC(=O)[C@H](CCCNC(=N)N)NC(=O)[C@H](CCCCN)NC1=O)[C@@H](C)O [PSM-0508, Ac-Thr-Pam-Phe-[Cys-Lys-Arg-Aib-Asn-Cys]-Tle-Thr-NH2] (Ac-T[αMeP]FCKR[Aib]NC[Tle]T-NH2; disulfide 4-9) | 
